These results are taken from US12662479B2 (Foghorn Therapeutics Inc., priority 2020, dated 2026).

Molecules are shown by their SMILES. Where a name gives a salt, the structure may show the parent alone.

The target of test [1] is T1, HiBit-BRM fusion protein (Homo sapiens, UniProt P51531).
T1 construct: expressed in transfected cells
Briefly: HiBiT-BRM cell-based degradation assay (Nano-Glo HiBiT Lytic Detection, 24 h). Conditions: HeLa cells expressing HiBiT-BRM; for DC50: read-out: BRM HiBit Degradation IC50; for BRM HiBit Degradation Maximum measured: top dose 30 μM. Summed up: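 Percent BRM loss was derived from HiBiT luminescence relative to DMSO-treated cells and cells given 2 μM of a known BRM/BRG1 degrader. Treatment lasted 24 h in HiBiT-BRM HeLa cells, with a top final concentration of 30 μM.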
(In general: HiBiT is a short tag that completes a luciferase, so light tracks the accessible tagged protein.)

The target in test [2] is T2, HiBit-BRG1 fusion protein (Homo sapiens, UniProt P51532).
T2 construct: expressed in transfected cells
Briefly: HiBiT-BRG1 cell-based degradation assay (Nano-Glo HiBiT Lytic Detection, 24 h). Conditions: HeLa cells expressing HiBit-BRG1 and LgBit; for DC50: read-out: BRG1 HiBit Degradation IC50; for Dmax: HeLa, top dose 30 μM, read-out: BRG1 HiBit Degradation Maximum measured. Summed up: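 Degradation is scaled from DMSO-treated cells (0%) to cells given 2 μM of a known BRM/BRG1 degrader (100%). HeLa cells stably carrying HiBiT-BRG1 plus LgBiT (5000/well) were lysed with Nano-Glo HiBiT detection reagent, shaken 10 min at RT, and luminescence read.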

T1 sequence (P51531 whole entry, the tested form may be a part): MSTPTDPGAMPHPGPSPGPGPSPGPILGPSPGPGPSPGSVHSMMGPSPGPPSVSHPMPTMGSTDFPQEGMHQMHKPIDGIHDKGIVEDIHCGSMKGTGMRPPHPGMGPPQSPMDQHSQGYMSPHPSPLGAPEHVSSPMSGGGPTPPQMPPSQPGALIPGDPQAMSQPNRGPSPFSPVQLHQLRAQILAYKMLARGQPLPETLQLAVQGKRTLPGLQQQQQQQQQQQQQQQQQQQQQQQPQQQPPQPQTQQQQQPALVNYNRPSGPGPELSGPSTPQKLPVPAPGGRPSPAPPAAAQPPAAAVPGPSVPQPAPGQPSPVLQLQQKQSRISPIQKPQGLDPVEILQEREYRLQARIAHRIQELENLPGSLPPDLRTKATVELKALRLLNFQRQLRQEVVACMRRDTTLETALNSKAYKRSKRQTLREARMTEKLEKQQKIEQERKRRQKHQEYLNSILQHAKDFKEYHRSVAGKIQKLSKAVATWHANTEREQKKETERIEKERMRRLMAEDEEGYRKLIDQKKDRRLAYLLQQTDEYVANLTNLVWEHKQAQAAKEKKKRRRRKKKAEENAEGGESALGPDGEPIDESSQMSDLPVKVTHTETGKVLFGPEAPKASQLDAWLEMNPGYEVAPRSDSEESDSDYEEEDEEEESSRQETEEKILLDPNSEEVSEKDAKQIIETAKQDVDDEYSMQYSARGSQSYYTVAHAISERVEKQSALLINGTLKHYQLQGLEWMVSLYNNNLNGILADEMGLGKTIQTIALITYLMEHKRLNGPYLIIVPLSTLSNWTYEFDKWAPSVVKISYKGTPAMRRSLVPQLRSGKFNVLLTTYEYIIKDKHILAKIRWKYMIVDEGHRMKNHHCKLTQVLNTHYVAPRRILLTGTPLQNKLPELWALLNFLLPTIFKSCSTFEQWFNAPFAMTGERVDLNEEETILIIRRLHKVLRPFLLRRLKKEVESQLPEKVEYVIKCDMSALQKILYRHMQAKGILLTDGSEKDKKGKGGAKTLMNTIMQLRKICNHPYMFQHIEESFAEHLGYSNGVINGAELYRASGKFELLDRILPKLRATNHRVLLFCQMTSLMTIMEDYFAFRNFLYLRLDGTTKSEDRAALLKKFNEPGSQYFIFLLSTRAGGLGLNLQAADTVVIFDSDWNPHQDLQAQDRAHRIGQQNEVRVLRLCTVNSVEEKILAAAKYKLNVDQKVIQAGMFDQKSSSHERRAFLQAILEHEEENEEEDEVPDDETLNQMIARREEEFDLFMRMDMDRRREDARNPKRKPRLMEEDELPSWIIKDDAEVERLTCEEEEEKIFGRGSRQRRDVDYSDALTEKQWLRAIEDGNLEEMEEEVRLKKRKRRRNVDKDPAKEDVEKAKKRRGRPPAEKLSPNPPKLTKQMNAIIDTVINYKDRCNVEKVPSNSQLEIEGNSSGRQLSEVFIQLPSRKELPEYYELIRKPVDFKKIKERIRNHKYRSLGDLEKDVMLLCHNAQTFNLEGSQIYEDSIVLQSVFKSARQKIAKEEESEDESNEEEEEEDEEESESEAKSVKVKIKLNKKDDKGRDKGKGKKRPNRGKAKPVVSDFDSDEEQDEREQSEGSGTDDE
T2 sequence (P51532 whole entry, the tested form may be a part): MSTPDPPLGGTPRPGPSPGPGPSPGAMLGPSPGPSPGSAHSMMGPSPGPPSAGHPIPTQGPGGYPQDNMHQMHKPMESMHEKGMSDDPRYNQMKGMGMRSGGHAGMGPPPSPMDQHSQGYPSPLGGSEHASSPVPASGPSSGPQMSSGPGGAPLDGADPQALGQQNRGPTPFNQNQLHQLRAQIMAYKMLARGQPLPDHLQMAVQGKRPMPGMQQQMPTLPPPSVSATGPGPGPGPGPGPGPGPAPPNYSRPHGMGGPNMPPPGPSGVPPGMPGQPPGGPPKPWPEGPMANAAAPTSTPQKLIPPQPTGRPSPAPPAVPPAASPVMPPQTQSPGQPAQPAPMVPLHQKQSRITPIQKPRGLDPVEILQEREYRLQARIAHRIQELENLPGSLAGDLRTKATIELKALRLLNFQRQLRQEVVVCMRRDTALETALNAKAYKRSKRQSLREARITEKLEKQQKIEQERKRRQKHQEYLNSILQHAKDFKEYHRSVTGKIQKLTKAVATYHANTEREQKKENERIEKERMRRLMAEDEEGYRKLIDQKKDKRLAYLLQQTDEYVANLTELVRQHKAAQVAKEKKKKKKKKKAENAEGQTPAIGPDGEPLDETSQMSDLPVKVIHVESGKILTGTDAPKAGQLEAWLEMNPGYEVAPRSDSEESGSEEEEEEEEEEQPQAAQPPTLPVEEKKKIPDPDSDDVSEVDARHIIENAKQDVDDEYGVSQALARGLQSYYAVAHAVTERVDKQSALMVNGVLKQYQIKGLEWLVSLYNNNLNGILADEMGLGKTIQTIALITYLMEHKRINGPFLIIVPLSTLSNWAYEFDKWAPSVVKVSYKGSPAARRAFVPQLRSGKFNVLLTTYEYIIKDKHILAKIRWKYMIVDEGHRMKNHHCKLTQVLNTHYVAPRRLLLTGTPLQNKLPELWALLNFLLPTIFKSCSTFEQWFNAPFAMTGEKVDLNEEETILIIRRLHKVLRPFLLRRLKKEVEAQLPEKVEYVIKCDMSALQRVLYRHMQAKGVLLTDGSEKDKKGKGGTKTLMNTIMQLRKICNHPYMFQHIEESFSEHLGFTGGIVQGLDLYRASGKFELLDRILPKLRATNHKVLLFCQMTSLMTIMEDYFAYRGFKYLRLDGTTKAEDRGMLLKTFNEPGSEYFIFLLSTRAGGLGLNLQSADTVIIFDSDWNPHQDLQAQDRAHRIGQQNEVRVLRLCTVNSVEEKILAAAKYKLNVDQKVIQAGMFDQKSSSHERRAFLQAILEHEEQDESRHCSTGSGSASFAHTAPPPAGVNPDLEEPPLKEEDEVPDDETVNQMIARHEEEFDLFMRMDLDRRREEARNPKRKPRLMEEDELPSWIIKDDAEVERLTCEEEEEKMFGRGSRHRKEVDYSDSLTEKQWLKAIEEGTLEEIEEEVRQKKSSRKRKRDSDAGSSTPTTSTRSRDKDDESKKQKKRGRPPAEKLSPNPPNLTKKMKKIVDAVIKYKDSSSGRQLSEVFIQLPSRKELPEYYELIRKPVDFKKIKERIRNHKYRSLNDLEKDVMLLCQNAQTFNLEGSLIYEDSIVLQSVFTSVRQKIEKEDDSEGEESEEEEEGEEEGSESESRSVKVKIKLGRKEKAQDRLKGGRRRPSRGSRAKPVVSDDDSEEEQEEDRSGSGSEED

In the case of `Cc1c(C(=O)NCC(=O)Nc2nc(-c3cccc(-c4ccnc(N(C)CC(=O)N5CCC(C6CCN(C(=O)COc7cccc8c7C(=O)N(C7CCC(=O)NC7=O)C8=O)CC6)CC5)c4)c3)cs2)cn(S(=O)(=O)C(C)C)c1C` (stereo not drawn) [Compound 116, N-(2-((4-(3-(2-((2-(1′-(2-((2-(2,6-dioxopiperidin-3-yl)-1,3-dioxoisoindolin-4-yl)oxy)acetyl)-[4,4′-bipiperidin]-1-yl)-2-oxoethyl)(methyl)amino)pyridin-4-yl)phenyl)thiazol-2-yl)amino)-2-oxoethyl)-1-(isopropylsulfonyl)-4,5-dimethyl-1H-pyrrole-3-carboxamide], in test [1], the DC50 was above 10 µM and the “BRM HiBit Degradation Maximum measured” value was “C (‘C’ = Maximum degradation <50%)”. Further, in test [2], the DC50 was above 10 µM and the Dmax was below 50%.

In the case of `Cc1ncsc1-c1ccc(CNC(=O)[C@@H]2C[C@@H](O)CN2C(=O)[C@@H](NC(=O)CCCCCNC(=O)CCCOCC[C@H](NC(=O)c2ccn(S(C)(=O)=O)c2)C(=O)Nc2nc(-c3ccccc3)cs2)C(C)(C)C)cc1` [Compound 251, (2S,4R)-4-hydroxy-1-[(2S)-2-(6-[4-[(3S)-3-[(1-methanesulfonylpyrrol-3-yl)formamido]-3-[(4-phenyl-1,3-thiazol-2-yl)carbamoyl]propoxy]butanamido]hexanamido)-3,3-dimethylbutanoyl]-N-[[4-(4-methyl-1,3-thiazol-5-yl)phenyl]methyl]pyrrolidine-2-carboxamide], in test [1], the DC50 was above 10 µM and the “BRM HiBit Degradation Maximum measured” value is on record as “C (‘C’ = Maximum degradation <50%)”. Moreover, in test [2], the DC50 is above 10 µM and the Dmax was below 50%.

On to `Cc1ncsc1-c1ccc(CNC(=O)[C@@H]2C[C@@H](O)CN2C(=O)[C@@H](NC(=O)CCN2CC(C(=O)NCc3cccc(-c4cccc(-c5csc(NC(=O)CNC(=O)c6ccn(S(C)(=O)=O)c6)n5)c4)c3)C2)C(C)(C)C)cc1` [Compound 154, (2S,4R)-4-hydroxy-1-[(2S)-2-[3-[3-([[3-(2-[2-[(1-methanesulfonylpyrrol-3-yl)formamido]acetamido]-1,3-thiazol-4-yl)-[1,1-biphenyl]-3-yl]methyl]carbamoyl)azetidin-1-yl]propanamido]-3,3-dimethylbutanoyl]-N-[[4-(4-methyl-1,3-thiazol-5-yl)phenyl]methyl]pyrrolidine-2-carboxamide formate], for which the DC50 in test [1] and in test [2] was above 10 µM in each case. Also, in test [1], the “BRM HiBit Degradation Maximum measured” value was “C (‘C’ = Maximum degradation <50%)”.

On to `Cc1ncsc1-c1ccc(CNC(=O)[C@@H]2C[C@@H](O)CN2C(=O)[C@@H](NC(=O)CCCC(=O)NCCOc2cc(-c3cccc(-c4csc(NC(=O)CNC(=O)c5ccn(S(C)(=O)=O)c5)n4)c3)ccn2)C(C)(C)C)cc1` [Compound 77, N1-((S)-1-((2S,4R)-4-hydroxy-2-((4-(4-methylthiazol-5-yl)benzyl)carbamoyl)pyrrolidin-1-yl)-3,3-dimethyl-1-oxobutan-2-yl)-N5-(2-((4-(3-(2-(2-(1-(methylsulfonyl)-1H-pyrrole-3-carboxamido)acetamido)thiazol-4-yl)phenyl)pyridin-2-yl)oxy)ethyl)glutaramide], for which, in test [1], the DC50 was above 10 µM and the “BRM HiBit Degradation Maximum measured” value was “C (‘C’ = Maximum degradation <50%)”. Further, in test [2], the DC50 was above 10 µM and the Dmax is below 50%.

Take `CS(=O)(=O)n1ccc(C(=O)N[C@@H](COCc2ccc(CNC(=O)CCOCCOCCNc3cccc4c3C(=O)N(C3CCC(=O)NC3=O)C4=O)cc2)C(=O)Nc2nc(-c3ccccc3)cs2)c1` (stereo partly drawn) [Compound 181]: in test [1], the DC50 lay in the range of 0.1 to 1 µM; the “BRM HiBit Degradation Maximum measured” value was “B (‘B’ = Maximum degradation ≥50% and ≤75%)”. In test [2], the DC50 was in the range of 0.1 to 1 µM and the Dmax was 50 to 75%.

`Cc1ncsc1-c1ccc(CNC(=O)[C@@H]2C[C@@H](O)CN2C(=O)[C@@H](NC(=O)COCC(=O)NCCOc2cc(-c3cccc(-c4csc(NC(=O)CNC(=O)c5ccn(S(C)(=O)=O)c5)n4)c3)ccn2)C(C)(C)C)cc1` [Compound 78, N-[2-[[4-[3-[2-[2-[[2-[2-[[(1S)-1-[(2S,4R)-4-hydroxy-2-[[4-(4-methylthiazol-5-yl)phenyl]methylcarbamoyl]pyrrolidine-1-carbonyl]-2,2-dimethyl-propyl]amino]-2-oxo-ethoxy]acetyl]amino]ethoxy]-4-pyridyl]phenyl]thiazol-2-yl]amino]-2-oxo-ethyl]-1-methylsulfonyl-pyrrole-3-carboxamide]: in test [1], the DC50 was above 10 µM and the “BRM HiBit Degradation Maximum measured” value is given as “C (‘C’ = Maximum degradation <50%)”. Moreover, in test [2], the DC50 was above 10 µM and the Dmax was below 50%.

`CS(=O)(=O)n1ccc(C(=O)N[C@@H](CCOCCCC(=O)NCCOc2ccc3c(c2)C(=O)N(C2CCC(=O)NC2=O)C3=O)C(=O)Nc2nc(-c3ccccc3)cs2)c1` (stereo partly drawn) [Compound 280, (2S)-4-[3-[(2-[[2-(2,6-dioxopiperidin-3-yl)-1,3-dioxoisoindol-5-yl]oxy]ethyl)carbamoyl]propoxy]-2-[(1-methanesulfonylpyrrol-3-yl)formamido]-N-(4-phenyl-1,3-thiazol-2-yl)butanamide]: in test [1], the DC50 is above 10 µM and the “BRM HiBit Degradation Maximum measured” value is “C (‘C’ = Maximum degradation <50%)”. Moreover, in test [2], the DC50 is above 10 µM and the Dmax was below 50%.

Regarding `CS(=O)(=O)n1ccc(C(=O)NCC(=O)Nc2nc(-c3cccc(-c4ccnc(OCCNC(=O)CCCOc5cccc6c5C(=O)N(C5CCC(=O)NC5=O)C6=O)c4)c3)cs2)c1` (stereo not drawn) [Compound 36, N-[2-[[4-[3-[2-[2-[4-[2-(2,6-dioxo-3-piperidyl)-1,3-dioxo-isoindolin-4-yl]oxybutanoylamino]ethoxy]-4-pyridyl]phenyl]thiazol-2-yl]amino]-2-oxo-ethyl]-1-methylsulfonyl-pyrrole-3-carboxamide], in test [1], the DC50 was above 10 µM and the “BRM HiBit Degradation Maximum measured” value is on record as “C (‘C’ = Maximum degradation <50%)”. Also, in test [2], the DC50 is above 10 µM and the Dmax is below 50%.

As to `CS(=O)(=O)n1ccc(C(=O)N[C@@H](CCOCCCC(=O)N2CCN(CCCOc3ccc4c(c3)C(=O)N(C3CCC(=O)NC3=O)C4=O)CC2)C(=O)Nc2nc(-c3ccccc3)cs2)c1` (stereo partly drawn) [Compound 255, (2S)-4-[4-[4-(3-[[2-(2,6-dioxopiperidin-3-yl)-1,3-dioxoisoindol-5-yl]oxy]propyl)piperazin-1-yl]-4-oxobutoxy]-2-[(1-methanesulfonylpyrrol-3-yl)formamido]-N-(4-phenyl-1,3-thiazol-2-yl)butanamide], in test [1], the DC50 was above 10 µM and the “BRM HiBit Degradation Maximum measured” value is “C (‘C’ = Maximum degradation <50%)”. In addition, in test [2], the DC50 is above 10 µM and the Dmax is below 50%.

As to `CS(=O)(=O)n1ccc(C(=O)NCC(=O)Nc2nc(-c3cccc(-c4cccc(CNC(=O)CCCCCCCOc5cccc6c5C(=O)N(C5CCC(=O)NC5=O)C6=O)c4)c3)cs2)c1` (stereo not drawn) [Compound 59, N-(2-((4-(3′-((8-((2-(2,6-dioxopiperidin-3-yl)-1,3-dioxoisoindolin-4-yl)oxy)octanamido)methyl)-[1,1′-biphenyl]-3-yl)thiazol-2-yl)amino)-2-oxoethyl)-1-(methylsulfonyl)-1H-pyrrole-3-carboxamide], in test [1], the DC50 was above 10 µM and the “BRM HiBit Degradation Maximum measured” value is “C (‘C’ = Maximum degradation <50%)”. In addition, in test [2], the DC50 is above 10 µM and the Dmax was below 50%.

As for `CS(=O)(=O)n1ccc(C(=O)NCC(=O)Nc2nc(-c3cccc(-c4ccnc(C5(C(=O)NCCNc6ccc7c(c6)CN(C6CCC(=O)NC6=O)C7=O)CC5)c4)c3)cs2)c1` (stereo not drawn) [Compound 167, N-(2-[[2-(2,6-dioxopiperidin-3-yl)-1-oxo-3H-isoindol-5-yl]amino]ethyl)-1-[4-[3-(2-[2-[(1-methanesulfonylpyrrol-3-yl)formamido]acetamido]-1,3-thiazol-4-yl)phenyl]pyridin-2-yl]cyclopropane-1-carboxamide], in test [1], the DC50 is below 0.1 µM and the “BRM HiBit Degradation Maximum measured” value is recorded as “A (‘A’ = Maximum degradation >75%)”. Besides, in test [2], the DC50 is below 0.1 µM and the Dmax was above 75%.

For the molecule `Cc1ncsc1-c1ccc(CNC(=O)[C@@H]2C[C@@H](O)CN2C(=O)[C@@H](NC(=O)CCCCCCC(=O)NCc2cccc(-c3cccc(-c4csc(NC(=O)CNC(=O)c5ccn(S(C)(=O)=O)c5)n4)c3)c2)C(C)(C)C)cc1` [Compound 50, N1-((S)-1-((2S,4R)-4-hydroxy-2-((4-(4-methylthiazol-5-yl)benzyl)carbamoyl)pyrrolidin-1-yl)-3,3-dimethyl-1-oxobutan-2-yl)-N8-((3′-(2-(2-(1-(methylsulfonyl)-1H-pyrrole-3-carboxamido)acetamido)thiazol-4-yl)-[1,1′-biphenyl]-3-yl)methyl)octanediamide], in test [1], the DC50 was in the range of 0.1 to 1 µM and the “BRM HiBit Degradation Maximum measured” value is reported as “A (‘A’ = Maximum degradation >75%)”. In test [2], the DC50 was 0.1 to 1 µM and the Dmax was above 75%.

Take `CS(=O)(=O)n1ccc(C(=O)NCC(=O)Nc2nc(-c3cccc(-c4cccc(CNC(=O)CCOCCOCCNc5cccc6c5C(=O)N(C5CCC(=O)NC5=O)C6=O)c4)c3)cs2)c1` (stereo not drawn) [Compound 42, N-(2-((4-(3′-((3-(2-(2-((2-(2,6-dioxopiperidin-3-yl)-1,3-dioxoisoindolin-4-yl)amino)ethoxy)ethoxy)propanamido)-methyl)-[1,1′-biphenyl]-3-yl)thiazol-2-yl)amino)-2-oxoethyl)-1-(methylsulfonyl)-1H-pyrrole-3-carboxamide]: in test [1], the DC50 is above 10 µM and the “BRM HiBit Degradation Maximum measured” value is listed as “C (‘C’ = Maximum degradation <50%)”. In test [2], the DC50 is 0.1 to 1 µM and the Dmax was in the range of 50 to 75%.
